Reference: patent publication US20090068290A1, “BIFEPRUNOX DOSES FOR TREATING SCHIZOPHRENIA” (priority 2006, published 2009)

Key:
Type in all cases: in vivo, human
[1] = test system: adult subjects with schizophrenia; experiment: Adverse events (TEAE, SAE, discontinuation, EPS-related TEAE, anticholinergic use), Clinical Study One; settings: for safety and tolerability: bifeprunox 5, 10, 20 mg, 6 weeks
Experimental: METHODOLOGY: This was a randomized, double-blind, fixed-dose, placebo-controlled, risperidone-referenced, parallel group, multi-center study in adult subjects with schizophrenia. There were five treatment groups in this study. […] Study medication was administered once daily. After Baseline measurements were performed, the titration phase was begun. Bifeprunox treated subjects were titrated up to 5 mg, 10 mg or 20 mg according to a standardized titration schedule (Day 1: 0.125 mg, Day 2: 0.25 mg, Day 3: 0.5 mg, Day 4: 1.0 mg, Day 5: 2.0 mg, Day 6: 5.0 mg, Day 7: 10.0 mg, Day 8: 20 mg).

[2] = test system: adult subjects with schizophrenia; experiment: PANSS responder rate, Clinical Study Two; settings: for PANSS 20% responder rate / PANSS 30% responder rate: Endpoint LOCF; for PANSS Responder at Endpoint, 30% Definition Responder, No / PANSS Responder at Endpoint, 30% Definition Responder, Yes / PANSS Responder at Week 6/Endpoint, 20% Definition, No / PANSS Responder at Week 6/Endpoint, 20% Definition, Yes: LOCF, ITT
Experimental: Notable differences were also observed between the 30 mg bifeprunox group and placebo for the change from baseline to endpoint in PANSS general psychopathology subscale score, BPRS total score, BPRS psychosis cluster score, PANSS responder rate, and CGI-I responder rate. […] A CGI-I responder refers to a subject who was categorized as “very much improved” or “much improved” in the CGI Global Improvement scale at endpoint. […]
Subjects who completed this study had the option to continue in the long-term. […] Risperidone-treated subjects were titrated from 2 mg to 6 mg daily over a three-day period and were subsequently maintained at 6 mg/day for the remainder of the treatment period. […] Blood samples were also obtained at Screening/Baseline, Week 3, and Week 6 for clinical laboratory assessments. […]

[3] = test system: adult subjects with schizophrenia; experiment: Adverse events (TEAE, SAE, special interest, EPS-related TEAE), Clinical Study Two
Experimental: Subjects who completed this study had the option to continue in the long-term. […] Risperidone-treated subjects were titrated from 2 mg to 6 mg daily over a three-day period and were subsequently maintained at 6 mg/day for the remainder of the treatment period. […] Blood samples were also obtained at Screening/Baseline, Week 3, and Week 6 for clinical laboratory assessments.

[4] = test system: adult subjects with schizophrenia; experiment: BPRS psychosis cluster score, Clinical Study Three; settings: for Change from Baseline in BPRS Psychosis Cluster Score, Mean (SD) / Change from Baseline in BPRS Psychosis Cluster Score, Median / Change from Baseline in BPRS Psychosis Cluster Score, Trt Effect (bifeprunox—placebo) / mean change (SD) from Baseline to Endpoint in BPRS psychosis cluster score: LOCF; for Change from Baseline in BPRS Psychosis Cluster Score, Mean (SD) / Change from Baseline in BPRS Psychosis Cluster Score, Median / Change from Baseline in BPRS Psychosis Cluster Score, Trt Effect (bifeprunox—placebo): ITT population; for BPRS psychosis cluster score, treatment effect (bifeprunox—placebo): Endpoint LOCF; for mean change (SD) from Baseline to Endpoint in BPRS psychosis cluster score: ITT
Source text: SECONDARY OBJECTIVES To assess the efficacy of bifeprunox in treating schizophrenia using the Positive Symptom sub-scale score of the PANSS, the Negative Symptom sub-scale score of the PANSS, the General Psychopathology sub-scale of the PANSS, Brief Psychiatric Rating Scale (BPRS) total score derived from the PANSS, BPRS psychosis score derived from the PANSS, the Clinical Global Impression Severity of Illness score (CGI-S), the Clinical Global Impression Improvement score (CGI-I), CGI-I responder rate, PANSS responder rate based on the PANSS total score, Calgary Depression Scale for Schizophrenia (CDSS), and Subject Satisfaction rating.
There were four treatment arms in this study, approximately 144 subjects per arm. […] After completing the Single-Blind Placebo Lead-in Period of at least three days, bifeprunox-treated subjects were titrated from 0.25 mg up to 20 mg/day or 30 mg/day according to a standardized titration scheme over a seven- or eight-day period, respectively. When the assigned dose was reached, subjects were maintained at that dose for the remainder of the six week treatment period. […] Subjects were hospitalized (if not already inpatients) after eligibility for study entry was verified, starting from the Screening Visit until at least 10 days after Baseline. Subjects could be hospitalized longer than 10 days if considered medically necessary by the Investigator. Rating scale assessments for efficacy and abnormal movement disorders were done weekly except for Week 5. […] Subject satisfaction with study medication was assessed at Week 6.

[5] = Bifeprunox 20 mg, Week 6/Endpoint
[6] = Bifeprunox 30 mg, Week 6/Endpoint

SMILES: O=c1[nH]c2cccc(N3CCN(Cc4cccc(-c5ccccc5)c4)CC3)c2o1 [Bifeprunox, 7-[4-([1,1′-biphenyl]-3-ylmethyl)-1-piperazinyl]-2(3H)-benzoxazolone]
- Syncope, % ([1]; BX 20 mg): (2%)
- TARDIVE DYSKINESIA, % ([1]; BX 20 mg): (<1%)
- TREMOR, % ([1]; BX 20 mg): (<1%)
- subjects with at least one AE that led to discontinuation ([1]; bifeprunox 5 mg): 11%
- subjects with at least one TEAE ([1]; bifeprunox 5 mg): 89%
- subjects with at least one AE that led to discontinuation ([1]; bifeprunox 10 mg): 14%
- subjects with at least one TEAE ([1]; bifeprunox 10 mg): 87%
- incidence of aggravated schizophrenia NOS (SAE) ([1]; bifeprunox 20 mg): 7%
- subjects with at least one AE that led to discontinuation ([1]; bifeprunox 20 mg): 10%
- subjects with at least one TEAE ([1]; bifeprunox 20 mg): 83%
- subjects with at least one severe TEAE ([1]; bifeprunox 20 mg): 10%
- suicide attempt ([1]; bifeprunox 20 mg): 2%
- safety and tolerability [1]: safe and well tolerated at all dose levels
- safety and tolerability ([1]; listed as bifeprunox): safe and well tolerated
- subjects with at least one SAE ([1]; bifeprunox groups (5, 10, 20 mg)): 12-15%
- rates of EPS ([1]; bifeprunox, 6 weeks (Example 4)): comparable to placebo
- PANSS 20% responder rate ([2]; bifeprunox 30 mg): 36%
- PANSS 30% responder rate ([2]; bifeprunox 30 mg): 24%
- PANSS Responder at Endpoint, 30% Definition Responder, No ([2]; bifeprunox 30 mg): 106 (76%) n (%)
- PANSS Responder at Endpoint, 30% Definition Responder, Yes ([2]; bifeprunox 30 mg): 34 (24%) n (%)
- PANSS Responder at Week 6/Endpoint, 20% Definition, No ([2]; bifeprunox 30 mg): 89 (64%) n (%)
- PANSS Responder at Week 6/Endpoint, 20% Definition, Yes ([2]; bifeprunox 30 mg): 51 (36%) n (%)
- PANSS 20% responder rate ([2]; bifeprunox 40 mg): 30%
- PANSS 30% responder rate ([2]; bifeprunox 40 mg): 22%
- PANSS Responder at Endpoint, 30% Definition Responder, No ([2]; bifeprunox 40 mg): 110 (78%) n (%)
- PANSS Responder at Endpoint, 30% Definition Responder, Yes ([2]; bifeprunox 40 mg): 31 (22%) n (%)
- PANSS Responder at Week 6/Endpoint, 20% Definition, No ([2]; bifeprunox 40 mg): 99 (70%) n (%)
- PANSS Responder at Week 6/Endpoint, 20% Definition, Yes ([2]; bifeprunox 40 mg): 42 (30%) n (%)
- AKATHISIA, % ([3]; BX 30 mg): (3%)
- BALANCE DISORDER, % ([3]; BX 30 mg): (<1%)
- COGWHEEL RIGIDITY, % ([3]; BX 30 mg): (<1%)
- DISTURBANCE IN ATTENTION, % ([3]; BX 30 mg): (<1%)
- DIZZINESS, % ([3]; BX 30 mg): (8%)
- DYSARTHRIA, % ([3]; BX 30 mg): (<1%)
- DYSGEUSIA, % ([3]; BX 30 mg): (<1%)
- DYSKINESIA, % ([3]; BX 30 mg): (1%)
- Dystonia, % ([3]; BX 30 mg): (2%)
- EXTRAPYRAMIDAL DISORDER, % ([3]; BX 30 mg): (5%)
- HEADACHE NOS, % ([3]; BX 30 mg): (12%)
- MIGRAINE, % ([3]; BX 30 mg): 1 (<1%)
- NERVOUS SYSTEM DISORDERS, % ([3]; BX 30 mg): (36%)
- PARAESTHESIA, % ([3]; BX 30 mg): 1 (<1%)
- PSYCHOMOTOR HYPERACTIVITY, % ([3]; BX 30 mg): 1 (<1%)
- SEDATION, % ([3]; BX 30 mg): 5%
- Syncope, % ([3]; BX 30 mg): 1 (<1%)
- TARDIVE DYSKINESIA, % ([3]; BX 30 mg): < 1%
- TREMOR, % ([3]; BX 30 mg): 6%
- AKATHISIA, % ([3]; BX 40 mg): (7%)
- Choreoathetosis, % ([3]; BX 40 mg): (<1%)
- DIZZINESS, % ([3]; BX 40 mg): (14%)
- DYSKINESIA, % ([3]; BX 40 mg): (3%)
- Dystonia, % ([3]; BX 40 mg): (2%)
- EXTRAPYRAMIDAL DISORDER, % ([3]; BX 40 mg): (5%)
- HEADACHE NOS, % ([3]; BX 40 mg): (17%)
- NERVOUS SYSTEM DISORDERS, % ([3]; BX 40 mg): (37%)
- SEDATION, % ([3]; BX 40 mg): 3%
- SOMNOLENCE, % ([3]; BX 40 mg): 1 (<1%)
- TARDIVE DYSKINESIA, % ([3]; BX 40 mg): 1 (<1%)
- TREMOR, % ([3]; BX 40 mg): 7%
- safety and tolerability ([3]; bifeprunox 30 mg and 40 mg, 6 weeks): safe and well tolerated
- incidence of severe TEAE of schizophrenia ([3]; bifeprunox groups (30, 40 mg)): 3%
- Change from Baseline in BPRS Psychosis Cluster Score, Mean (SD) ([4]; Bifeprunox 20 mg, Week 1): −1.4 (2.3)
- Change from Baseline in BPRS Psychosis Cluster Score, Median ([4]; Bifeprunox 20 mg, Week 1): −1
- Change from Baseline in BPRS Psychosis Cluster Score, Mean (SD) ([4]; Bifeprunox 20 mg, Week 2): −2.1 (2.9)
- Change from Baseline in BPRS Psychosis Cluster Score, Median ([4]; Bifeprunox 20 mg, Week 2): −2
- Change from Baseline in BPRS Psychosis Cluster Score, Mean (SD) ([4]; Bifeprunox 20 mg, Week 3): −2.6 (3.4)
- Change from Baseline in BPRS Psychosis Cluster Score, Median ([4]; Bifeprunox 20 mg, Week 3): −3
- Change from Baseline in BPRS Psychosis Cluster Score, Median ([4]; Bifeprunox 20 mg, Week 4): −3
- Change from Baseline in BPRS Psychosis Cluster Score, Mean (SD) [4, 5]: −3.1 (3.9)
- Change from Baseline in BPRS Psychosis Cluster Score, Median [4, 5]: −3
- Change from Baseline in BPRS Psychosis Cluster Score, Trt Effect (bifeprunox—placebo) [4, 5]: −0.6
- Change from Baseline in BPRS Psychosis Cluster Score, Mean (SD) ([4]; Bifeprunox 30 mg, Week 1): −1.7 (2.5)
- Change from Baseline in BPRS Psychosis Cluster Score, Median ([4]; Bifeprunox 30 mg, Week 1): −2
- Change from Baseline in BPRS Psychosis Cluster Score, Mean (SD) ([4]; Bifeprunox 30 mg, Week 2): −2.3 (3.3)
- Change from Baseline in BPRS Psychosis Cluster Score, Median ([4]; Bifeprunox 30 mg, Week 2): −2
- Change from Baseline in BPRS Psychosis Cluster Score, Mean (SD) ([4]; Bifeprunox 30 mg, Week 3): −2.7 (3.8)
- Change from Baseline in BPRS Psychosis Cluster Score, Median ([4]; Bifeprunox 30 mg, Week 3): −3
- Change from Baseline in BPRS Psychosis Cluster Score, Mean (SD) ([4]; Bifeprunox 30 mg, Week 4): −3.0 (4.0)
- Change from Baseline in BPRS Psychosis Cluster Score, Median ([4]; Bifeprunox 30 mg, Week 4): −3
- Change from Baseline in BPRS Psychosis Cluster Score, Mean (SD) [4, 6]: −3.2 (4.4)
- Change from Baseline in BPRS Psychosis Cluster Score, Median [4, 6]: −3
- Change from Baseline in BPRS Psychosis Cluster Score, Trt Effect (bifeprunox—placebo) [4, 6]: −0.5
- BPRS psychosis cluster score, treatment effect (bifeprunox—placebo) ([4]; bifeprunox 20 mg): −0.6
- mean change (SD) from Baseline to Endpoint in BPRS psychosis cluster score ([4]; bifeprunox 20 mg): −3.1 (3-9)
- BPRS psychosis cluster score, treatment effect (bifeprunox—placebo) ([4]; bifeprunox 30 mg): −0.5
- mean change (SD) from Baseline to Endpoint in BPRS psychosis cluster score ([4]; bifeprunox 30 mg): −3.2 (4.4)
